This is an account of results in patent publication US10221162B2, “Triazole agonists of the APJ receptor” (priority 2015, dated 2019).

SMILES strings stand for the structures. Like-named read-outs stand apart in the source and are kept apart here.

One assay concerns the target human APJ receptor (Homo sapiens (Human), UniProt P35414). Description: [35S]GTPγS binding assay (hAPJ SPA). Type of assay: biochemical. On the procedure: The human APJ receptor was cloned by polymerase chain reaction and the gene encoding the receptor was subcloned in pFLAG-CMV™-3 expression vector (Sigma, Saint Louis, Mo. USA) in-house at Amgen. A GTPγS binding assay was performed on membranes prepared from CHO cells stably expressing human APJ receptor. The optimum experimental conditions for the concentrations of GDP, MgCl2, and NaCl in the assay buffer were initially determined. The assay was performed in assay buffer [20 mM HEPES, pH 7.5, 5 mM MgCl2, and 0.1% (w/v) BSA with 200 mM NaCl, 3 μM GDP] and membranes expressing human APJ receptor/well along with WGA PS beads. The reaction was initiated by addition of 0.2 nM [^35S]GTPγS (Perkin Elmer Life and Analytical Sciences, Waltham USA) in the absence or presence of various ligands and incubated at RT for 90 min. […] All the results presented are means of several independent experiments and analyzed by non-linear regression methods using commercially available program Prism (GraphPad, San Diego, Calif.) to obtain EC50 detailed in Table 58.
Background: GTPγS resists hydrolysis and so accumulates on activated G proteins.

The next assay concerns heart failure rat model. Put plainly: In vivo cardiac contractility in heart failure (MI) rat model. As to conditions: heart failure rats, acute administration for 30 min, result in words. On the procedure:
Male Lewis rats (Charles River, USA) at 2-3 months of age were used for the study. […] APJ agonists were administered dose dependently acutely for a period of 30 min.
The interaction between […] (ACE2) and Apelin biology is complicated. To investigate the interaction between the Apelin-APJ and ACE signalling pathways, we examined the improvement in cardiac function with APJ small molecule agonists in the presence of ACE inhibitor captopril in heart failure rats in vivo.

Assay [1] has as its system naive Sprague Dawley rat hearts. Put plainly: Langendorff isolated perfused rat heart (ex vivo contractility and relaxation). Conditions: Langendorff apparatus, as a function of concentration.
The mark [2] stands for this setting: membranes from CHO cells stably expressing human APJ receptor, [35S]GTPγS, read-out: Activity hAPJ SPA EC50 IP.

A word on the EC50: it is the concentration giving half of the maximal effect.

human APJ receptor, sequence (P35414 whole entry): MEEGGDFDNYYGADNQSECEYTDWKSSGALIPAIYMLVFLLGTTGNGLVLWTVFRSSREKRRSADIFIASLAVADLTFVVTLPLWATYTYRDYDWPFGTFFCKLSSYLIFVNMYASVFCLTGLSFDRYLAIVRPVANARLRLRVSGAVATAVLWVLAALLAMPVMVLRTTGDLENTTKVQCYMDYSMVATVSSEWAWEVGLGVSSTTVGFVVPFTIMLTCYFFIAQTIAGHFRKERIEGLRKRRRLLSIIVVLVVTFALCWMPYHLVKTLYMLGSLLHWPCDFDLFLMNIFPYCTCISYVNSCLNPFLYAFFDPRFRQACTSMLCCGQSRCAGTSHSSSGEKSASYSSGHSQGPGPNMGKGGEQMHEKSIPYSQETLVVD

The compound `COc1cccc(OC)c1-n1c(NS(=O)(=O)[C@@H](C)[C@H](O)c2ccc(C#N)cc2)nnc1-c1cncc(C)c1.COc1cccc(OC)c1-n1c(NS(=O)(=O)[C@H](C)[C@@H](O)c2ccc(C#N)cc2)nnc1-c1cncc(C)c1` (mixture of isomers) [Example 247.0, (1R,2S)-1-(4-cyanophenyl)-N-(4-(2,6-dimethoxyphenyl)-5-(5-methyl-3-pyridinyl)-4H-1,2,4-triazol-3-yl)-1-hydroxy-2-propanesulfonamide and (1S,2R)-1-(4-cyanophenyl)-N-(4-(2,6-dimethoxyphenyl)-5-(5-methyl-3-pyridinyl)-4H-1,2,4-triazol-3-yl)-1-hydroxy-2-propanesulfonamide] displayed an EC50 on human APJ receptor of 3.8 nM.
With `COc1cccc(-c2nnc(NS(=O)(=O)[C@@H](C)[C@H](O)c3ccccc3OC)n2-c2c(OC)cccc2OC)n1` (single isomer, unassigned) [Example 324.0], at human APJ receptor (setting [2]), the EC50 turned out to be 14 nM.
As to `COc1cccc(-c2nnc(NS(=O)(=O)[C@@H](C)[C@H](O)c3ccccc3OC)n2-c2c(OC)cccc2OC)n1` (single isomer, unassigned) [Example 325.0], the EC50 on human APJ receptor (setting [2]) is 170 nM.
Regarding `COc1cccc(-c2nnc(NS(=O)(=O)[C@@H](C)[C@H](O)c3ccccc3OC)n2-c2c(OC)cccc2OC)n1` (single isomer, unassigned) [Example 326.0], the EC50 at human APJ receptor (setting [2]) was determined as 22 nM.
On the same count and under the same terms, then `COc1cccc(-c2nnc(NS(=O)(=O)[C@@H](C)[C@H](O)c3ccccc3OC)n2-c2c(OC)cccc2OC)n1` (single isomer, unassigned) [Example 327.0], with 2 nM; and `CCOc1cccc(OC)c1-n1c(NS(=O)(=O)[C@@H](C)[C@H](OC)c2ncc(C)cn2)nnc1-c1cccc(OC)n1` (single isomer, unassigned) [Example 665.0, (1R,2S,P)—N-(4-(2-ethoxy-6-methoxyphenyl)-5-(6-methoxy-2-pyridinyl)-4H-1,2,4-triazol-3-yl)-1-methoxy-1-(5-methyl-2-pyrimidinyl)-2-propanesulfonamide or (1R,2S,M)-N-(4-(2-ethoxy-6-methoxyphenyl)-5-(6-methoxy-2-pyridinyl)-4H-1,2,4-triazol-3-yl)-1-methoxy-1-(5-methyl-2-pyrimidinyl)-2-propanesulfonamide], with 3.9 nM.
For `COc1cccc(OC)c1-n1c(NS(=O)(=O)[C@@H](C)[C@H](O)c2ncc(C)cn2)nnc1-c1cccc(C)n1` [Example 99.0, (1R,2S)-N-(4-(2,6-dimethoxyphenyl)-5-(6-methylpyridin-2-yl)-4H-1,2,4-triazol-3-yl)-1-hydroxy-1-(5-methylpyrimidin-2-yl)propane-2-sulfonamide], in the assay with heart failure rat model, the “cardiac contractility as measured by dP/dt” value is “increase in cardiac contractility”. In addition, in assay [1], the “left ventricular dP/dtmax (load independent cardiac contractility)” value was “increases load independent cardiac contractility” and the “left ventricular dP/dtmin (load independent cardiac relaxation)” value was “increases load independent cardiac relaxation”.
For `COc1cccc(OC)c1-n1c(NS(=O)(=O)[C@@H](C)[C@H](C)c2ncc(C)cn2)nnc1-c1cncc(C)c1` [Example 263.0, (2S,3R)—N-(4-(2,6-dimethoxyphenyl)-5-(5-methylpyridin-3-yl)-4H-1,2,4-triazol-3-yl)-3-(5-methylpyrimidin-2-yl)butane-2-sulfonamide], in the assay with heart failure rat model, the “cardiac contractility as measured by dP/dt” value was “increase in cardiac contractility”. Moreover, in assay [1], the “left ventricular dP/dtmax (load independent cardiac contractility)” value is recorded as “increases load independent cardiac contractility” and the “left ventricular dP/dtmin (load independent cardiac relaxation)” value is “increases load independent cardiac relaxation”.
